According to US9464064B2, “HCV helicase inhibitors and methods of use thereof” (University of Kansas, priority 2011, dated 2016):

Target: T1, HCV NS3 helicase NS3h_1b(con1) (Hepatitis C virus genotype 1b, UniProt Q9WMX2)
T1 construct: truncated C-terminally His-tagged NS3 proteins lacking the N-terminal protease, called NS3h; His-tag (C); made in house
Assay: MBHA screen of NCI mechanistic set library at 20 μM (percent inhibition, compound interference)
Format: biochemical
Settings: compounds at 20 μM; for Inh. (%) (Inhibition): calculated from Equation 1
Summary of the method: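 Molecular beacon-based DNA unwinding assay; compounds screened at 20 μM in triplicate, with DMSO-only negative and 500 nM dT20 positive controls. Fluorescence (ex 643/em 670 nm) was read before and 30 min after adding ATP to 1 mM. Percent inhibition came from the change relative to DMSO controls; interference from pre-ATP fluorescence versus DMSO controls.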

[1] = assay interference calculated with Equation 2 (fluorescence vs DMSO-only controls before ATP)
[2] = MBHA with DNA substrate, assay interference calculated with Equation 2

T1 sequence (Q9WMX2 1192-1657): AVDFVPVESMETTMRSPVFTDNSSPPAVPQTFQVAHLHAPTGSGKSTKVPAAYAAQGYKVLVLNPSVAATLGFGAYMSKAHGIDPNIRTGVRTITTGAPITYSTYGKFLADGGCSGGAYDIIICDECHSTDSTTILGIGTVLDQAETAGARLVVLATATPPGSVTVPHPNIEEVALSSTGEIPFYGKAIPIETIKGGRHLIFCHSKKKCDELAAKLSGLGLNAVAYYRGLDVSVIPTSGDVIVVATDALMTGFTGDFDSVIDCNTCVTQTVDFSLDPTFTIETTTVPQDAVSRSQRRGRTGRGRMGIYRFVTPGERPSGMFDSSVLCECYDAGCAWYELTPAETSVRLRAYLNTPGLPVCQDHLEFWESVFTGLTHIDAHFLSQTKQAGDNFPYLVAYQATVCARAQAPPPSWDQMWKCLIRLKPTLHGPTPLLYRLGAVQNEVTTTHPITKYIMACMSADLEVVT

Compound	Inh. (%) (Inhibition) (MBHA with a DNA substrate)	Int.* (Ratio) (Interference) [1]	Int.* (Ratio) (Interference) [2]	Inh. (%) (Inhibition) (MBHA with DNA substrate)
CCOC(OC1=C(C#N)CCC1)C(C)[Se]c1ccccc1 (stereo not shown) [Compound 646189]	–	–	0.92	−1.0
CCC(C#N)(c1ccccc1)N(CCc1ccccc1)C(=O)c1ccccc1 (stereo not shown) [Compound 681741]	–	–	0.92	−16.2
CC1(C)O[C@@H]2C[C@H]3[C@@H]4C[C@H](F)C5=CC(=O)C=C[C@]5(C)[C@@]4(F)[C@@H](O)C[C@]3(C)[C@]2(C(=O)CO)O1 [Compound 92339]	–	–	1.04	−1.6
N[C@H](C(=O)O)[C@@H]1CC(Cl)=NO1 [Compound 163501]	10.3	0.91	–	–
CSCC(CO)NC(=O)/C=C/c1c(C)[nH]c(=O)[nH]c1=O (stereo not shown) [Compound 233872]	–	–	1.00	17.4
Cc1cc2nc(C=C(C(F)(F)F)C(F)(F)F)oc2cc1C [Compound 168415]	–	–	0.95	13.3
CC(Cc1ccccc1)NC1=NCCO1 (stereo not shown) [Compound 664298]	9.8	0.96	–	–
CC(C)C1=C(O)C2=C(C(=O)C1=O)C1(C)CCCC(C)(C)C1CC2O (stereo not shown) [Compound 294577]	–	–	0.95	−15.9
CC(=O)O[C@H]1C(=O)[C@@]2(C)[C@H]([C@H](OC(=O)c3ccccc3)[C@]3(O)C[C@H](O)C(C)=C1C3(C)C)[C@]1(OC(C)=O)CO[C@@H]1C[C@@H]2O [Compound 330753]	−24.1	0.88	–	–
N.N.[Cl][Pt][Cl] [Compound 119875]	–	–	0.83	25.1
CCOC(=O)[C@H](CC(C)C)NC(=O)C(Cc1ccc(N(CCCl)CCCl)cc1)NC(C)=O (stereo partly shown) [Compound 167780]	–	–	1.00	22.8
N#CC(C#N)=Cc1cccc(Oc2ccccc2)c1 [Compound 643031]	–	–	1.08	−0.1
C=C(C)[C@@H]1CC[C@]2(CO)CC[C@]3(C)[C@H](CC[C@@H]4[C@@]5(C)CC[C@H](O)C(C)(C)[C@@H]5CC[C@]43C)[C@@H]12 [Compound 4644]	–	–	1.32	−13.9
CC(=O)C1=C(O)C2(O)C(=O)c3c(c(C)c4ccc(C)c(O)c4c3O)CC2C(N)C1=O.CCCCCCCCCCCCOS(=O)(=O)O (stereo not shown) [Compound 73495]	−5.1	1.01	–	–
O=c1[nH]c(=O)n(C2CCCO2)cc1F (stereo not shown) [Compound 148958]	–	–	0.99	−8.9
[Cl-].[Cl-].[Cl-].[Rh+3].c1ccc(-c2ccnc3c2ccc2c(-c4ccccc4)ccnc23)cc1.c1ccc(-c2ccnc3c2ccc2c(-c4ccccc4)ccnc23)cc1.c1ccc(-c2ccnc3c2ccc2c(-c4ccccc4)ccnc23)cc1 [Compound 619179]	–	–	0.44	23.8
O=S(=O)(O)SC/C=C/CSS(=O)(=O)O [Compound 624161]	–	–	1.03	−8.2
CN(CO)c1nc(N(C)CO)nc(N(C)CO)n1 [Compound 283162]	–	–	1.08	−12.0

Second part, the molecule after the results:

Inh. (%) (Inhibition) (MBHA with a DNA substrate)	Int.* (Ratio) (Interference) [1]	Int.* (Ratio) (Interference) [2]	Inh. (%) (Inhibition) (MBHA with DNA substrate)	Compound
9.6	0.90	–	–	Cc1nc(-n2nc(-c3ccccc3)cc2-c2ccccc2)sc1C(=O)/C=C/c1ccc(Cl)c(Cl)c1 [Compound 640584]
–	–	0.93	−18.1	O=C(c1ccccc1)C(c1ccccc1)C1(O)C(=O)Nc2c(Cl)cc(Cl)cc21 (stereo not shown) [Compound 635312]
–	–	0.94	−11.6	C=CC(=O)N1C/C(=C\c2ccc([N+](=O)[O-])cc2)C(=O)/C(=C/c2ccc([N+](=O)[O-])cc2)C1 [Compound 687852]
7.1	1.11	–	–	CC(=O)OCc1cc(=O)n(C)c2c3c4c(cc12)c(C)cc(=O)n4CO3 [Compound 157004]
–	–	1.03	−8.6	CN(C)c1cccc(F)c1C(=O)NC(=O)Nc1ccc(Cl)cc1 [Compound 603108]
–	–	0.89	33.3	S=C1Nc2cnc3ccccc3c2SC1c1ccccc1 (stereo not shown) [Compound 667467]
7.6	0.82	–	–	CN1CCN(CCNc2ccc(CO)c3sc4ccccc4c(=O)c23)CC1 [Compound 166381]
–	–	0.96	−9.0	COc1ccc2cc1Oc1ccc(cc1)CC1c3cc(c(OC)cc3CCN1C)Oc1c(OC)c(OC)cc3c1C(C2)N(C)CC3 (stereo not shown) [Compound 97338]
–	–	0.70	23.1	COc1cc2c3c(n(C)c(=O)c2cc1OC)-c1cc2c(cc1C3=O)OCO2 [Compound 314622]
−22.4	0.95	–	–	Cc1ccc(Nc2nc(C)c(C(/C=C/c3ccc(/C=C/C(=N\NC(=O)C[n+]4ccccc4)c4sc(Nc5ccc(C)cc5[N+](=O)[O-])nc4C)cc3)=N/NC(=O)C[n+]3ccccc3)s2)c([N+](=O)[O-])c1.Cl [Compound 640342]
–	–	1.16	6.3	CCOC(=O)c1cc2c(OC)cc(OC)cc2oc1=O [Compound 111119]
−6.1	0.85	–	–	Oc1[nH]c2ccccc2c1N=Nc1nc(-c2ccc(Br)cc2)cs1 [Compound 657456]
–	–	0.82	−10.3	O=[N+]([O-])c1cccc2nc3ccccc3c(NCCCNc3c4ccccc4nc4cccc([N+](=O)[O-])c34)c12 [Compound 690634]
−24.2	0.91	–	–	Cc1nc(Nc2ccc(Cl)c(Cl)c2)sc1C(/C=C/c1ccc2c(c1)OCO2)=N/Nc1ccc([N+](=O)[O-])cc1[N+](=O)[O-] [Compound 640335]
12.0	0.93	–	–	Fc1cccc(Cl)c1C1SCc2nc3ccccc3n21 (stereo not shown) [Compound 625483]
−39.0	1.09	–	–	C[C@H]1O[C@@H](c2ccc3c(c2O)C(=O)C2=C(C3=O)[C@@]3(O)C(=O)C[C@](C)(O)C[C@@]3(O)C=C2)C[C@@H](O)[C@@H]1O [Compound 184398]
–	–	0.93	1.5	Cc1ccc(C2NC(=O)c3ccccc3N2)s1 (stereo not shown) [Compound 175634]
−5.4	0.98	–	–	OCc1ccc(-c2ccc(-c3ccc(CO)s3)o2)s1 [Compound 652287]
–	–	0.53	64.3	COc1ccc2c(c1)-c1nn(CCCN(C)C)c3ccc([N+](=O)[O-])c(c13)N2 [Compound 627168]
–	–	0.77	37.7	CCN(CC)CCNc1ccc2nc(C)n3c4ccc(OC)cc4c(=O)c1c23.Cl [Compound 637993]
